The pIC50 is the negative decadic logarithm of the IC50, by convention in mol/L. In general, IC50 refers to the concentration at which inhibition is half-maximal.

Each structure is given as a SMILES string. pIC50: −log10 of the molar value.

Consider 30 compounds from ChEMBL document CHEMBL5120780, “Novel indazole skeleton derivatives containing 1,2,3-triazole as potential anti-prostate cancer drugs” (Bioorg Med Chem Lett, 2022).

One series relates to HepG2. The series is described as follows: Antiproliferative activity against human HepG2 cells assessed as inhibition of cell growth incubated for 72 hrs by MTT assay. Type of series: functional, cell-based. Particulars: HepG2, 72 h. On the technique in general: Tetrazolium dyes change colour on reduction, which living cells bring about.
The test system of the next series is MCF7. The series is described as follows: Antiproliferative activity against human MCF7 cells assessed as inhibition of cell growth incubated for 72 hrs by MTT assay. Type of series: functional, cell-based. Particulars: MCF7, 72 h.
In another series the test system is MGC-803. The series is described as follows: Antiproliferative activity against human MGC-803 cells assessed as inhibition of cell growth incubated for 72 hrs by MTT assay. The format is functional, cell-based. The note with it: MGC-803, 72 h.
Series [1] relates to PC-3. The series is described as follows: Antiproliferative activity against human PC-3 cells assessed as inhibition of cell growth incubated for 72 hrs by MTT assay. Type of series: functional, cell-based. Particulars: PC-3, 72 h.
The nature of series [2]: Toxicity in wild type KM mouse assessed as change in liver morphology at 2 g/Kg, IG measured for 2 weeks by H and E staining based microscopic analysis. The format is tissue-based. Particulars: in vivo, po, 2000 mg/kg, 336 h.
For series [3], the system named is PC-3. The series is described as follows: Inhibition of colony formation in human PC-3 cells incubated for 7 days by crystal violet staining based analysis. The format is functional, cell-based. The note with it: dose 2-8 µM, time 7.0 day, DDE = dose-dependent effect.
The nature of series [4]: Toxicity in wild type KM mouse assessed as change in heart morphology at 2 g/Kg, IG measured for 2 weeks by H and E staining based microscopic analysis. Type of series: tissue-based. Particulars: in vivo, po, 2000 mg/kg, 336 h.
The nature of series [5]: Toxicity in wild type KM mouse assessed as behavioral abnormalities at 2 g/Kg, IG measured for 2 weeks. Particulars: in vivo, po, 2000 mg/kg, 336 h.
Series [6] in a line: Toxicity in wild type KM mouse assessed as animal survival at 2 g/Kg, IG measured for 2 weeks. The note with it: in vivo, po, 2000 mg/kg, 336 h.
Series [7] can be described thus: Toxicity in wild type KM mouse assessed as change in kidney morphology at 2 g/Kg, IG measured for 2 weeks by H and E staining based microscopic analysis. Particulars: in vivo, po, 2000 mg/kg, 336 h.
Series [8] in a line: Cytotoxicity against human WPMY-1 cells assessed as inhibition of cell growth incubated for 72 hrs by MTT assay. Type of series: toxicity, cell-based.
Series [9] is described as follows: Toxicity in wild type KM mouse assessed as change in lung morphology at 2 g/Kg, IG measured for 2 weeks by H and E staining based microscopic analysis. Particulars: in vivo, po, 2000 mg/kg, 336 h.
The subject of series [10] is PC-3. The series is described as follows: Induction of cell cycle arrest in human PC-3 cells assessed as accumulation of cells in G2/M phase at 8 uM incubated for 24 hrs by RNase/PI staining based flow cytometry analysis (reference value: 22.17%). Type of series: functional. A general note: In flow cytometry, cells or beads pass a laser one at a time.
Series [11] can be described thus: Selectivity ratio of IC50 for cytotoxicity against human WPMY-1 cells to IC50 for antiproliferative activity against human PC-3 cells. The format is toxicity, cell-based. The note with it: WPMY-1 cells and PC-3 cells, read-out: Ratio IC50.
Series [12] can be described thus: Toxicity in wild type KM mouse assessed as change in prostate morphology at 2 g/Kg, IG measured for 2 weeks by H and E staining based microscopic analysis. Particulars: in vivo, po, 2000 mg/kg, 336 h.
Series [13] can be described thus: Toxicity in wild type KM mouse assessed as change in spleen morphology at 2 g/Kg, IG measured for 2 weeks by H and E staining based microscopic analysis. The note with it: in vivo, po, 2000 mg/kg, 336 h.

For `O=c1[nH]cc(F)c(=O)[nH]1` [FLUOROURACIL], the values for the pIC50 in the series on HepG2 and in the series with MCF7 were 4.93 and 4.82, respectively.

Regarding `CC(C)n1ncc2c(C(=O)NCc3cn(-c4ccc(C(F)(F)F)cc4)nn3)cccc21`, the pIC50 with HepG2 is under 4.40; in the series on MGC-803, under 4.40; with MCF7 it was under 4.40; in the series with PC-3 [1] it was 4.41.

Consider `Cc1ccccc1-n1cc(CNC(=O)c2cccc3c2cnn3C(C)C)nn1`, for which the pIC50 with HepG2 was under 4.40; in the series with MGC-803 it was under 4.40; with MCF7, under 4.40; in the series on PC-3 [1], 4.72.

Regarding `CC(C)n1ncc2c(C(=O)NCc3cn(Cc4ccccc4)nn3)cccc21`, the Activity entry in [2], in series [4], in series [5], in series [6], in series [7] and in [9] was “Non-Toxic” in each case. Besides, the Activity is reported as 72.25% in the series with PC-3 [10], “Non-Toxic” in series [12] and “Non-Toxic” in [13]. Further, in the series on PC-3 [3], the inhibition entry is “Dde”. Besides, the pIC50 with HepG2 is 4.86; in the series on MGC-803, 4.84; in the series on MCF7, 5.04; in the series with PC-3 [1] it was 5.35. Further, in series [8], the IC50 at 72 h worked out at 20.3 µM. Moreover, the selectivity ratio in series [11] was determined as 4.42.

As for `CC(C)n1ncc2c(C(=O)NCc3cn(-c4ccc(I)cc4)nn3)cccc21`, the pIC50 with HepG2, in the series with MGC-803, in the series on MCF7 and in the series on PC-3 [1] was under 4.40 throughout.

On to `CNC(=O)c1ccc(N2C(=S)N(c3ccc(C#N)c(C(F)(F)F)c3)C(=O)C2(C)C)cc1F` [ENZALUTAMIDE], for which the IC50 at 72 h in series [8] worked out at 61.4 µM. For the same compound, the pIC50 in the series with PC-3 [1] is 4.61. In addition, the selectivity ratio in series [11] is 2.49.

For the compound `CC(C)n1ncc2c(C(=O)NCc3cn(-c4ccccc4F)nn3)cccc21`, the pIC50 in the series with HepG2, with MGC-803, with MCF7 and in the series on PC-3 [1] was under 4.40 each time.

Consider `COc1ccc(-n2cc(CNC(=O)c3cccc4c3cnn4C(C)C)nn2)cc1`, for which the pIC50 with HepG2 was under 4.40; in the series with MGC-803 it was under 4.40; in the series on MCF7, under 4.40; in the series with PC-3 [1], 4.47.

On to `CC(C)n1ncc2c(C(=O)Nc3cccnc3)cccc21`, for which the pIC50 in the series with HepG2, with MGC-803, in the series with MCF7 and in the series with PC-3 [1] was under 4.40 throughout.

Consider `CC(C)n1ncc2c(C(=O)NCc3cn(-c4cccc(F)c4)nn3)cccc21`, for which the pIC50 is under 4.40 in the series with HepG2, under 4.40 in the series with MGC-803, under 4.40 in the series with MCF7 and 4.44 with PC-3 [1].

`CC(C)n1ncc2c(C(=O)NCc3cn(-c4ccccc4)nn3)cccc21`: the pIC50 was under 4.40 in the series with HepG2, under 4.40 in the series with MGC-803, under 4.40 with MCF7 and 4.59 in the series with PC-3 [1].

`CC(C)n1ncc2c(C(=O)Nc3ccccc3)cccc21`: the pIC50 in the series on HepG2 was 4.62; in the series with MGC-803, 4.41; in the series on MCF7, 4.71; in the series on PC-3 [1], 4.93.

For the compound `Cc1ccc(-n2cc(CNC(=O)c3cccc4c3cnn4C(C)C)nn2)cc1C`, the pIC50 with HepG2 was under 4.40; with MGC-803, under 4.40; with MCF7 it was under 4.40; with PC-3 [1], 4.63.

Turning to `Cc1ccc(-n2cc(CNC(=O)c3cccc4c3cnn4C(C)C)nn2)cc1`, the pIC50 with HepG2 is under 4.40; in the series with MGC-803, under 4.40; with MCF7 it was under 4.40; in the series on PC-3 [1] it was 4.41.

Take `CC(C)n1ncc2c(C(=O)NCCN(C)C)cccc21`: the pIC50 with HepG2, with MGC-803, in the series with MCF7 and in the series on PC-3 [1] was under 4.40 in each case.

`CC(C)n1ncc2c(C(=O)NCc3cn(Cc4ccc(C#N)cc4)nn3)cccc21`: the pIC50 was under 4.40 in the series on HepG2, 4.40 in the series on MGC-803, under 4.40 in the series with MCF7 and 4.74 with PC-3 [1].

Regarding `Cc1cccc(-n2cc(CNC(=O)c3cccc4c3cnn4C(C)C)nn2)c1`, the pIC50 with HepG2 is under 4.40; in the series with MGC-803, under 4.40; in the series with MCF7 it was under 4.40; in the series on PC-3 [1], 4.49.

Regarding `CC(C)n1ncc2c(C(=O)NCCN3CCN(C)CC3)cccc21`, the negative-log IC50 (pIC50) in the series with HepG2, in the series with MGC-803, in the series with MCF7 and with PC-3 [1] was under 4.40 throughout.

For `CC(C)n1ncc2c(C(=O)NCc3cn(-c4cccc(Br)c4)nn3)cccc21`, the pIC50 in the series with HepG2 was under 4.40; in the series with MGC-803 it was under 4.40; in the series on MCF7 it was under 4.40; in the series with PC-3 [1], 4.47.

Take `CC(C)n1ncc2c(C(=O)NCc3ccccc3)cccc21`: the pIC50 with HepG2 is under 4.40; in the series on MGC-803 it was under 4.40; with MCF7 it was under 4.40; with PC-3 [1], 4.82.

For the compound `COc1ccc(Cn2cc(CNC(=O)c3cccc4c3cnn4C(C)C)nn2)cc1`, the negative logarithm of the IC50 (pIC50) is under 4.40 with HepG2, under 4.40 with MGC-803, under 4.40 in the series on MCF7 and 4.47 in the series on PC-3 [1].

As for `CCc1ccc(-n2cc(CNC(=O)c3cccc4c3cnn4C(C)C)nn2)cc1`, the pIC50 with HepG2 is under 4.40; in the series with MGC-803, under 4.40; in the series on MCF7, under 4.40; with PC-3 [1] it was 4.57.

With `CC(C)n1ncc2c(C(=O)NCc3cn(-c4ccc(F)cc4)nn3)cccc21`, the pIC50 in the series on HepG2, in the series with MGC-803, in the series on MCF7 and with PC-3 [1] was under 4.40 each time.

For `Cc1ccc(-n2cc(CNC(=O)c3cccc4c3cnn4C(C)C)nn2)c(C)c1`, the pIC50 in the series on HepG2 was under 4.40; in the series on MGC-803, under 4.40; with MCF7, under 4.40; with PC-3 [1], 4.98.

On to `CC(C)n1ncc2c(C(=O)NCc3cn(Cc4ccc(C(C)(C)C)cc4)nn3)cccc21`, for which the pIC50 in the series with HepG2 is under 4.40; in the series with MGC-803, under 4.40; in the series with MCF7, under 4.40; in the series with PC-3 [1], 5.05.

For the compound `CC(C)n1ncc2c(C(=O)NC3CCCC3)cccc21`, the pIC50 with HepG2 was under 4.40; in the series with MGC-803, under 4.40; in the series on MCF7 it was under 4.40; in the series with PC-3 [1], 4.71.

In the case of `CC(C)n1ncc2c(C(=O)NCc3cn(Cc4ccc(C(F)(F)F)cc4)nn3)cccc21`, the pIC50 in the series with HepG2 is under 4.40; with MGC-803 it was under 4.40; with MCF7, under 4.40; in the series with PC-3 [1], 4.62.

On to `CC(C)n1ncc2c(C(=O)NCc3cn(-c4ccc([N+](=O)[O-])cc4)nn3)cccc21`, for which the pIC50 with HepG2, with MGC-803, in the series on MCF7 and in the series with PC-3 [1] was under 4.40 throughout.

For `CC(C)n1ncc2c(C(=O)NCCN3CCCCC3)cccc21`, the pIC50 in the series with HepG2, with MGC-803, in the series on MCF7 and in the series on PC-3 [1] was under 4.40 in each case.

For the compound `CC(C)n1ncc2c(C(=O)NCCN3CCCC3)cccc21`, the pIC50 with HepG2, in the series on MGC-803, in the series on MCF7 and in the series with PC-3 [1] was under 4.40 in each case.
